Results published in patent US10927078B2, “Modulators of indoleamine 2,3-dioxygenase” (GLAXOSMITHKLINE INTELLECTUAL PROPERTY DEVELOPMENT LIMITED, priority 2017, dated 2021).

What follows are compounds tested against indoleamine 2, 3-dioxygenase (IDO1) (Homo sapiens, UniProt P14902) (assay: PBMC IDO1 assay (kynurenine via mass spectrometry)). Conditions: not given.
Format: cell-based
Experimental: Compounds of the present invention were tested via high-throughput cellular assays utilizing detection of kynurenine via mass spectrometry and cytotoxicity as end-points. For the mass spectrometry and cytotoxicity assays, human peripheral blood mononuclear cells (PBMC) (PB003F; AllCells®, Alameda, Calif.) were stimulated with human interferon-γ (IFN-γ) (Sigma-Aldrich Corporation, St. Louis, Mo.) and lipopolysaccharide from Salmonella minnesota (LPS) (Invivogen, San Diego, Calif.) to induce the expression of indoleamine 2, 3-dioxygenase (IDO1). Compounds with IDO1 inhibitory properties decreased the amount of kynurenine produced by the cells via the tryptophan catabolic pathway. Cellular toxicity due to the effect of compound treatment was measured using CellTiter-Glo® reagent (CTG) (Promega Corporation, Madison, Wis.), which is based on luminescent detection of ATP, an indicator of metabolically active cells.
In preparation for the assays, test compounds were serially diluted 3-fold in DMSO from a typical top concentration of 5 mM and plated at 0.5 μL in 384-well, polystyrene, clear bottom, tissue culture treated plates with lids (Greiner Bio-One, Kremsmünster, Austria) to generate 11-point dose response curves. Low control wells (0% kynurenine or 100% cytotoxicity) contained either 0.5 μL of DMSO in the presence of unstimulated (-IFN-γ/-LPS) PBMCs for the mass spectrometry assay or 0.5 μL of DMSO in the absence of cells for the cytotoxicity assay, and high control wells (100% kynurenine or 0% cytotoxicity) contained 0.5 μL of DMSO in the presence of stimulated (+IFN-γ/+LPS) PBMCs for both the mass spectrometry and cytotoxicity assays.
Frozen stocks of PBMCs were washed and recovered in RPMI 1640 medium (Thermo Fisher Scientific, Inc., Waltham, Mass.) supplemented with 10% v/v heat-inactivated fetal bovine serum (FBS) (Thermo Fisher Scientific, Inc., Waltham, Mass.), and 1× penicillin-streptomycin antibiotic solution (Thermo Fisher Scientific, Inc., Waltham, Mass.). The cells were diluted to 1,000,000 cells/mL in the supplemented RPMI 1640 medium. 50 μL of either the cell suspension, for the mass spectrometry assay, or medium alone, for the cytotoxicity assay, were added to the low control wells, on the previously prepared 384-well compound plates, resulting in 50,000 cells/well or 0 cells/well respectively. IFN-γ and LPS were added to the remaining cell suspension at final concentrations of 100 ng/ml and 50 ng/ml respectively, and 50 μL of the stimulated cells were added to all remaining wells on the 384-well compound plates. The plates, with lids, were then placed in a 37° C., 5% CO2 humidified incubator for 2 days.
Following incubation, the 384-well plates were removed from the incubator and allowed to equilibrate to room temperature for 30 minutes. For the cytotoxicity assay, CellTiter-Glo® was prepared according to the manufacturer's instructions, and 40 μL were added to each plate well. After a twenty minute incubation at room temperature, luminescence was read on an EnVision® Multilabel Reader (PerkinElmer Inc., Waltham, Mass.). For the mass spectrometry assay, 10 μL of supernatant from each well of the compound-treated plates were added to 40 μL of acetonitrile, containing 10 μM of an internal standard for normalization, in 384-well, polypropylene, V-bottom plates (Greiner Bio-One, Kremsmünster, Austria) to extract the organic analytes. Following centrifugation at 2000 rpm for 10 minutes, 10 μL from each well of the acetonitrile extraction plates were added to 90 μL of sterile, distilled H2O in 384-well, polypropylene, V-bottom plates for analysis of kynurenine and the internal standard on the RapidFire 300 (Agilent Technologies, Santa Clara, Calif.) and 4000 QTRAP MS (SCIEX, Framingham, Mass.). MS data were integrated using Agilent Technologies' RapidFire Integrator software, and data were normalized for analysis as a ratio of kynurenine to the internal standard. […]

indoleamine 2, 3-dioxygenase (IDO1), sequence (P14902 whole entry): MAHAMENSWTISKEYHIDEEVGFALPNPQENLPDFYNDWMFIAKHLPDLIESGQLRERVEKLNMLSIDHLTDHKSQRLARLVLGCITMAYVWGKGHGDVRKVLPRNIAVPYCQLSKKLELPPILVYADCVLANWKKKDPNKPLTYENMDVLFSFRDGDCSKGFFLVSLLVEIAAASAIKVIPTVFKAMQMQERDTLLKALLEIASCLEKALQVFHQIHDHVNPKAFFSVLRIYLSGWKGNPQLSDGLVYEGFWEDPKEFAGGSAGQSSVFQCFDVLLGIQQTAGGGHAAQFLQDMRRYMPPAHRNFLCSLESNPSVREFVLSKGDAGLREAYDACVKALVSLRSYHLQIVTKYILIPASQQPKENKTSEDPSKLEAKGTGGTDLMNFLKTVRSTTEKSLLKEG

Going from `COc1ncccc1OC(=O)N1CCC(C(CC(C)C)NC(=O)c2ccc(Cl)cc2)CC1` (stereo not drawn) [Example 10, 2-methoxypyridin-3-yl 4-{1-[(4-chlorophenyl)formamido]-3-methylbutyl}piperidine-1-carboxylate] to `CC(C)CC(NC(=O)c1ccc(Cl)cc1)C1CCN(C(=O)Oc2cccnc2C(C)C)CC1` (stereo not drawn) [Example 34, 2-(propan-2-yl)pyridin-3-yl 4-{1-[(4-chlorophenyl)formamido]-3-methylbutyl}piperidine-1-carboxylate], the IC50 rises from 2.51 nM to 6.31 nM (2.5-fold).

Compared with `O=C(N[C@H](CCCO)C1CCN(C(=O)Oc2cccnc2F)CC1)c1ccc(F)cc1` [Example 97, 2-fluoropyridin-3-yl 4-[(1R)-1-[(4-fluorophenyl)formamido]-4-hydroxybutyl]piperidine-1-carboxylate], `O=C(NC(c1ccncc1)C1CCN(C(=O)Oc2cccnc2F)CC1)c1ccc(F)cc1` (stereo not drawn) [Example 72, 2-fluoropyridin-3-yl 4-{[(4-fluorophenyl)formamido](pyridin-4-yl)methyl}piperidine-1-carboxylate] is 8-fold lower in IC50: 1260 nM for the first, 158 nM for the second.

Compound `O=C(N[C@H](c1ccccc1)C1CCN(C(=O)Oc2cccnc2F)CC1)c1ccc(Cl)cc1` [Example 31, 2-fluoropyridin-3-yl 4-[(S)-[(4-chlorophenyl)formamido](phenyl)methyl]piperidine-1-carboxylate] has an IC50 of 5.01 nM.

Same assay, conditions: human PBMC stimulated with IFN-γ and LPS, 2 days, kynurenine by mass spectrometry; recorded as pIC50; read-out: PBMC PXC50_ (converted)

Compared with `CC(C)CC(NC(=O)c1ccc(F)cc1)C1CCN(C(=O)Oc2cccc(C#N)c2F)CC1` (stereo not drawn) [Example 41, 3-cyano-2-fluorophenyl 4-{1-[(4-fluorophenyl)formamido]-3-methylbutyl}piperidine-1-carboxylate], `Cc1cccc(OC(=O)N2CCC(C(CC(C)C)NC(=O)c3ccc(F)cc3)CC2)c1F` (stereo not drawn) [Example 28, 2-fluoro-3-methylphenyl 4-{1-[(4-fluorophenyl)formamido]-3-methylbutyl}piperidine-1-carboxylate] is 1.6-fold lower in IC50: 7.94 nM for the first, 5.01 nM for the second.

Compared with `O=C(NC(C1CC1)C1CCN(C(=O)Oc2ccccc2)CC1)c1ccc(F)cc1` (stereo not drawn) [Example 66, phenyl 4-{cyclopropyl[(4-fluorophenyl)formamido]methyl}piperidine-1-carboxylate], `O=C(NC(C1CC1)C1CCN(C(=O)Oc2ccncc2)CC1)c1ccc(F)cc1` (stereo not drawn) [Example 81, pyridin-4-yl 4-{cyclopropyl[(4-fluorophenyl)formamido]methyl}piperidine-1-carboxylate] is 4-fold higher in IC50: 100 nM for the first, 398 nM for the second.

First: O=C(NC(c1ccccc1)C1CCN(C(=O)Oc2ccccc2)CC1)c1ccccc1 (stereo not drawn) [Example 43, phenyl 4-[phenyl(phenylformamido)methyl]piperidine-1-carboxylate]
Second: O=C(NC(c1ccccc1)C1CCN(C(=O)Oc2ccccc2)CC1)c1ccc(Cl)c(F)c1 (stereo not drawn) [Example 53, phenyl 4-{[(4-chloro-3-fluorophenyl)formamido](phenyl)methyl}piperidine-1-carboxylate]
The IC50 of the first is 2-fold lower: 10 nM for the first, 20 nM for the second.

Compared with `Cc1ccc(C(=O)N[C@H](C2CC2)C2CCN(C(=O)Oc3ccnc(C)c3C)CC2)s1` [Example 32, 2,3-dimethylpyridin-4-yl 4-[(R)-cyclopropyl[(5-methylthiophen-2-yl)formamido]methyl]piperidine-1-carboxylate], `Cc1ccc(C(=O)NC(C2CC2)C2CCN(C(=O)Oc3c(C)ncnc3C)CC2)s1` (stereo in doubt) [Example 113, (S)-4,6-dimethylpyrimidin-5-yl 4-(cyclopropyl(5-methylthiophene-2-carboxamido)methyl)piperidine-1-carboxylate] is 2.5-fold higher in IC50: 5.01 nM for the first, 12.6 nM for the second.

Compared with `Cc1cccc(OC(=O)N2CCC(C(CC(C)C)NC(=O)c3ccc(F)cc3)CC2)c1C` (stereo not drawn) [Example 40, 2,3-dimethylphenyl 4-{1-[(4-fluorophenyl)formamido]-3-methylbutyl}piperidine-1-carboxylate], `CC(C)CC(NC(=O)c1ccc(F)cc1)C1CCN(C(=O)Oc2ccnc3ccccc23)CC1` (stereo not drawn) [Example 79, quinolin-4-yl 4-{1-[(4-fluorophenyl)formamido]-3-methylbutyl}piperidine-1-carboxylate] is 40-fold higher in IC50: 7.94 nM for the first, 316 nM for the second.

Going from `Cc1c(OC(=O)N2CCC([C@@H](C)NC(=O)c3ccc(Cl)s3)CC2)ccnc1F` [Example 101, 2-fluoro-3-methylpyridin-4-yl 4-[(1R)-1-[(5-chlorothiophen-2-yl)formamido]ethyl]piperidine-1-carboxylate] to `Cc1c(F)cccc1OC(=O)N1CCC([C@@H](C)NC(=O)c2ccc(Cl)s2)CC1` [Example 36, 3-fluoro-2-methylphenyl 4-[(1R)-1-[(5-chlorothiophen-2-yl)formamido]ethyl]piperidine-1-carboxylate], the IC50 falls from 3160 nM to 6.31 nM (500-fold).

Going from `CC(C)C[C@@H](NC(=O)c1ccc(Cl)cc1)C1CCN(C(=O)Oc2ccccc2)CC1` [Example 21, phenyl 4-[(1R)-1-[(4-chlorophenyl)formamido]-3-methylbutyl]piperidine-1-carboxylate] to `CC(C)C[C@H](NC(=O)c1ccc(Cl)cc1)C1CCN(C(=O)Oc2ccccc2)CC1` [Example 67, phenyl 4-[(1S)-1-[(4-chlorophenyl)formamido]-3-methylbutyl]piperidine-1-carboxylate], the IC50 rises from 3.98 nM to 100 nM (25-fold).

Compared with `COCCC[C@@H](NC(=O)c1ccc(F)cc1)C1CCN(C(=O)Oc2cccc(F)c2C)CC1` [Example 42, 3-fluoro-2-methylphenyl 4-[(1R)-1-[(4-fluorophenyl)formamido]-4-methoxybutyl]piperidine-1-carboxylate], `CC(C)CC(NC(=O)c1ccc(F)cc1)C1CCN(C(=O)Oc2ccnc(F)c2)CC1` (stereo not drawn) [Example 55, 2-fluoropyridin-4-yl 4-{1-[(4-fluorophenyl)formamido]-3-methylbutyl}piperidine-1-carboxylate] is 2.5-fold higher in IC50: 7.94 nM for the first, 20 nM for the second.

First: Cc1nccc(OC(=O)N2CCC([C@H](NC(=O)c3ccc(Cl)cc3)c3ccccc3)CC2)c1C [Example 20, 2,3-dimethylpyridin-4-yl 4-[(S)-[(4-chlorophenyl)formamido](phenyl)methyl]piperidine-1-carboxylate]
Second: O=C(NC(c1ccncc1)C1CCN(C(=O)Oc2ccccn2)CC1)c1ccc(F)cc1 (stereo not drawn) [Example 96, pyridin-2-yl 4-{[(4-fluorophenyl)formamido](pyridin-4-yl)methyl}piperidine-1-carboxylate]
The IC50 of the first is 320-fold lower: 3.98 nM for the first, 1260 nM for the second.

Compared with `C[C@@H](NC(=O)c1ccc(Cl)s1)C1CCN(C(=O)Oc2ccccc2)CC1` [Example 38, phenyl 4-[(1R)-1-[(5-chlorothiophen-2-yl)formamido]ethyl]piperidine-1-carboxylate], `O=C(N[C@H](C1CC1)C1CCN(C(=O)Oc2ccccc2)CC1)c1ccc(Cl)s1` [Example 23, phenyl 4-[(R)-[(5-chlorothiophen-2-yl)formamido](cyclopropyl)methyl]piperidine-1-carboxylate] is 2-fold lower in IC50: 7.94 nM for the first, 3.98 nM for the second.

Compared with `CC(C)OCC(NC(=O)c1ccc(F)cc1)C1CCN(C(=O)Oc2ccccc2)CC1` (stereo not drawn) [Example 82, phenyl 4-{1-[(4-fluorophenyl)formamido]-2-(propan-2-yloxy)ethyl}piperidine-1-carboxylate], `O=C(NC(c1ccncc1)C1CCN(C(=O)OC2CCCCC2)CC1)c1ccc(F)cc1` (stereo not drawn) [Example 100, cyclohexyl 4-{[(4-fluorophenyl)formamido](pyridin-4-yl)methyl}piperidine-1-carboxylate] is 7.9-fold higher in IC50: 398 nM for the first, 3160 nM for the second.
